Assay results taken from patent US11535607B2, “Isoindolines as HDAC inhibitors” (Valo Health, Inc., priority 2018, dated 2022).
In brackets after ≈: the same amount, converted by molar mass. Where two headings read alike, the source gives them in different places. Values belong to the compound of their own block, whether it stands above or below them.

Assays:
HDAC11 = HDAC11 (Homo sapiens (Human), UniProt Q96DB2); experiment: Lipophilic efficiency (pIC50 HDAC11 - clogD7.4); conditions: pIC50 HDAC11 - clogD7.4, Table 6
Sequence of HDAC11 (Q96DB2 whole entry): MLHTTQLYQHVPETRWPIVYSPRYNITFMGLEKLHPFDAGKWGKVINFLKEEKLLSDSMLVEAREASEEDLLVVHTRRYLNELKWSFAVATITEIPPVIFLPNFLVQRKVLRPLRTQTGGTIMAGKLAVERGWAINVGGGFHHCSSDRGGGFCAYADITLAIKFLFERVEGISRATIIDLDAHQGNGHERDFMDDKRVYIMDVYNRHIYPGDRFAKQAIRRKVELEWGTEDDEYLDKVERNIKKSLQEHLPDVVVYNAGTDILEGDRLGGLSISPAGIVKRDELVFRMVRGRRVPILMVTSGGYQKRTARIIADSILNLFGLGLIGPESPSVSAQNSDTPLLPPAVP

[1] = Kinetic solubility at pH 7.4; format: physicochemical; conditions: aqueous buffer, kinetic from dmso stock
full-length human HDAC11 [2] = target: T1, full-length human HDAC11 (Homo sapiens (Human), UniProt Q96DB2); experiment: HDAC11 deacetylase electrophoretic mobility shift assay (Nanosyn); format: biochemical; conditions: for IC50: mobility shift assay
T1 sequence (Q96DB2 whole entry): as above
Experimental: The measurement of HD AC 11 deacetylase activity was performed using an electrophoretic mobility shift assay by Nanosyn (Santa Clara, Calif.). Full length human recombinant HD AC 11 protein was expressed in baculoviral system and purified by affinity chromatography. The enzymatic reactions were assembled in 384 well plates in a total volume of 25 μL in a reaction buffer composing: 100 mM HEPES, pH 7.5, 25 mM KCl, 0.1% bovine serum albumin, 0.01% Triton X-100, 1% DMSO (from compounds), 2 μM of the fluorescently labeled peptide substrate and enzyme. The enzyme was added at a final concentration of 10 nM. The peptide substrate FAM-RHKK(tri-fluor-Ac)—NH2 was used. The compounds were tested at 12 concentrations spaced by 3× dilution intervals. Negative control samples (0%-inhibition in the absence of inhibitor) and positive control samples (100%-inhibition) were assembled in replicates of four in each assay plate. The reactions were incubated at 25° C. and quenched by the addition of 45 μL of termination buffer (100 mM HEPES, pH 7.5, 0.01% Triton X-100, 0.05% SDS).
The terminated assay plates were analyzed on LabChip® 3000 microfluidic electrophoresis instrument (Perkin Elmer/Caliper Life Sciences). The fluorescence intensity of the electrophoretically separated de-acetylated product and substrate peptide was measured. Activity in each sample was determined as the product to sum ratio (PSR): P/(S+P), where P is the peak height of the product peptide and S is the peak height of the substrate peptide. Percent inhibition (Pinh) is determined using the following equation: Pinh=(PSR0%−PSRinh)/(PSR0%−PSR100%)*100, where PSRinh, is the product sum ratio in the presence of inhibitor, PSR0% is the average product sum ration in the absence of inhibitor and PSR100% is the average product sum ratio in 100%-inhibition control samples. The IC50 values of inhibitors were determined by fitting the percent inhibition curves with 4 parameter dose-response model using XLfit 4 software.

[3] = target: HDAC11 fused to Nanoluc luciferase (Homo sapiens (Human), UniProt Q96DB2); experiment: BRET target engagement cell assay
Sequence of HDAC11 fused to Nanoluc luciferase (Q96DB2 whole entry, the tested form may be a part): as the sequence (Q96DB2 whole entry) above

[4] = In vitro intrinsic clearance after incubation with mouse liver microsomes; format: in vitro ADME; conditions: Table 6
full-length human HDAC11 [5] = target: T1, full-length human HDAC11; experiment: Probe binding HDAC11 time resolved fluorescence (TRF) assay; conditions: Table 2, read-out: HDAC11 IC50 Range
[6] = Mouse pharmacokinetic study (i.v. and i.p.); format: in vivo
Experimental: Based on its overall in vitro profile, 22-8 was advanced to mouse PK studies to measure its suitability as an in vivo tool compound. The pharmacokinetic properties of 22-8 were assessed in male Balb/c nude mice following both intravenous (i.v.) and intraperitoneal (i.p.) dosing (Table 8).

HDAC5 = HDAC5 (Homo sapiens (Human), UniProt Q9UQL6); experiment: HDAC5 electrophoretic mobility shift assay; format: biochemical; conditions: Table 7, read-out: HDAC IC50, HDAC 5
Sequence of HDAC5 (Q9UQL6 whole entry): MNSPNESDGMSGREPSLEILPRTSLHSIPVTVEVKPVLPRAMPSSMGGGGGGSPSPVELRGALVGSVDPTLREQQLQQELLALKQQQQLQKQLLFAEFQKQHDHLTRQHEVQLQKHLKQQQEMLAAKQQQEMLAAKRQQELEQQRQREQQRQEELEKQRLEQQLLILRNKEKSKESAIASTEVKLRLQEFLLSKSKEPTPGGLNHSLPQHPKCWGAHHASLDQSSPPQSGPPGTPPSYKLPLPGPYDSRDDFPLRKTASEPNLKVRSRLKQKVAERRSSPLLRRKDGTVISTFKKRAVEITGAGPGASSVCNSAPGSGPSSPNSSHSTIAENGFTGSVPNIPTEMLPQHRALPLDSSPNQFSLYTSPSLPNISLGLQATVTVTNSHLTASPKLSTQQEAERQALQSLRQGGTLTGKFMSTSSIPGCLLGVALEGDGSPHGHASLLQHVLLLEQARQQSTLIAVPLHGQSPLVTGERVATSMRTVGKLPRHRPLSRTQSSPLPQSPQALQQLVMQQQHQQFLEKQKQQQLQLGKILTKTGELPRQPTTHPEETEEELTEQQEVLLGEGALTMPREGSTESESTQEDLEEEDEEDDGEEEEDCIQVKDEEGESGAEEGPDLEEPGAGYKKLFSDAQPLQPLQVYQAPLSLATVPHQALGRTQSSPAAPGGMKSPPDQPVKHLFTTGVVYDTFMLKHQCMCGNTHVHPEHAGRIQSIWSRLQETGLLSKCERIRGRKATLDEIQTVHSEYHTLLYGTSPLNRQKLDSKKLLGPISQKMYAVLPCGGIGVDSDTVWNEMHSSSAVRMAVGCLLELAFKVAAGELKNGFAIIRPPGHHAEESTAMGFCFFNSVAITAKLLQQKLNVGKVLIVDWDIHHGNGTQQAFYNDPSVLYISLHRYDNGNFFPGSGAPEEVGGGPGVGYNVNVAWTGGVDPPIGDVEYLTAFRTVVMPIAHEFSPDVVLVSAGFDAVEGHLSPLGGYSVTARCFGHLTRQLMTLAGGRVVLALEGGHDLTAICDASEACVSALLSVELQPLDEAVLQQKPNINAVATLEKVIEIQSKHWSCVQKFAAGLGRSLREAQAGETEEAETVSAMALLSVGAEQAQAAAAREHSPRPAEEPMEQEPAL

HDAC7 = HDAC7 (Homo sapiens (Human), UniProt Q8WUI4); experiment: HDAC7 electrophoretic mobility shift assay; format: biochemical; conditions: Table 7, read-out: HDAC IC50, HDAC 7
Sequence of HDAC7 (Q8WUI4 whole entry): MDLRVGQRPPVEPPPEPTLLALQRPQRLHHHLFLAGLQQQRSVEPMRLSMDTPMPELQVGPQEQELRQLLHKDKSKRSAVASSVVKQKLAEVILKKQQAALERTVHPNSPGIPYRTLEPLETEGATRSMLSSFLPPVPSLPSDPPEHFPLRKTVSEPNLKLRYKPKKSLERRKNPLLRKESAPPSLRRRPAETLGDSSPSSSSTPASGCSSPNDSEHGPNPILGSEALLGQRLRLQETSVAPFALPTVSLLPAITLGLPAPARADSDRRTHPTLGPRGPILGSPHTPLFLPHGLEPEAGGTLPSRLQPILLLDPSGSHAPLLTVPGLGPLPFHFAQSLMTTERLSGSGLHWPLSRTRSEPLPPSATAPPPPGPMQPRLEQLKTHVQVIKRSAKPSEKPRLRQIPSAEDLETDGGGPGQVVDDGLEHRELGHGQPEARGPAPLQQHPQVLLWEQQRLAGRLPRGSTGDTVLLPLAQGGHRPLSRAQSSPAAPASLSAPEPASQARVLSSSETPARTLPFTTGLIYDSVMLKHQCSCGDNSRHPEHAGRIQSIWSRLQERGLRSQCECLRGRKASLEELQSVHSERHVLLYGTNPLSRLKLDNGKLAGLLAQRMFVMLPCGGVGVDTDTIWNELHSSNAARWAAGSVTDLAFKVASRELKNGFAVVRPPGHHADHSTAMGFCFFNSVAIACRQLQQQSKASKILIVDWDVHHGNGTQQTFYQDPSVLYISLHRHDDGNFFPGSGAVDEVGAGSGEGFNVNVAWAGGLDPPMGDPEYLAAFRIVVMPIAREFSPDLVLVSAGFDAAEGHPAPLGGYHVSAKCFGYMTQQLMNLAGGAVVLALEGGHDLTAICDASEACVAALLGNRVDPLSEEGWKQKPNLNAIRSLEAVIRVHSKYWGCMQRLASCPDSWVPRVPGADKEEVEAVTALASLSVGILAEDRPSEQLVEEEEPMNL

HDAC9 = HDAC9 (Homo sapiens (Human), UniProt Q9UKV0); experiment: HDAC9 electrophoretic mobility shift assay; format: biochemical; conditions: Table 7, read-out: HDAC IC50, HDAC 9
Sequence of HDAC9 (Q9UKV0 whole entry): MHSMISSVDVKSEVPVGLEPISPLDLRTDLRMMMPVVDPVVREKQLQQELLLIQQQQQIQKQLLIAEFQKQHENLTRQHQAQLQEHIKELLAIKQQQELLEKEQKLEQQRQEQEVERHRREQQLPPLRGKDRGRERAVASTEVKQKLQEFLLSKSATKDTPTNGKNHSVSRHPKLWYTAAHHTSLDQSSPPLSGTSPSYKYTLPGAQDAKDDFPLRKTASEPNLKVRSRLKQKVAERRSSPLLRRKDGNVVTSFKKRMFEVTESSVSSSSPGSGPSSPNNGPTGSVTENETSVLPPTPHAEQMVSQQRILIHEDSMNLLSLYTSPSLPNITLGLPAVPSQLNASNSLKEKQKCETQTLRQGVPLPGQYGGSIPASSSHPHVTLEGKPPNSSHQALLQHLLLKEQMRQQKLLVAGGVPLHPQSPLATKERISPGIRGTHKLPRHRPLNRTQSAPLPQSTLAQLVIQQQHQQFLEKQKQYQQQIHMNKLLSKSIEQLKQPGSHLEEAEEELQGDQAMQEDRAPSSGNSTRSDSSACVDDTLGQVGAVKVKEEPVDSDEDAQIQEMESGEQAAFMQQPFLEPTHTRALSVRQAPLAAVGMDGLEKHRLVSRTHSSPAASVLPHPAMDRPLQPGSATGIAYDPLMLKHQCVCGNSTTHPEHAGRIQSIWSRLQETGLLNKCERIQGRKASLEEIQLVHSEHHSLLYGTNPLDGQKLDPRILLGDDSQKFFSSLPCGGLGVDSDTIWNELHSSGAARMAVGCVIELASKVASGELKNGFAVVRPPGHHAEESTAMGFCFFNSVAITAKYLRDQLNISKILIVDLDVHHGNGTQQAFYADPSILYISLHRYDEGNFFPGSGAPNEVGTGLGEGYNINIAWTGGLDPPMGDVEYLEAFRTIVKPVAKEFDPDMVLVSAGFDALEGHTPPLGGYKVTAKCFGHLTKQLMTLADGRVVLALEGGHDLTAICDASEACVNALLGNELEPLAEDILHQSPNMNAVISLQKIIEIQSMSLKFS

[7] = tested on: other 10 members of the HDAC family; experiment: HDAC family selectivity profile, electrophoretic mobility shift assays; format: biochemical, human; conditions: HDAC 1-11 profile
HDAC8 = HDAC8 (Homo sapiens (Human), UniProt Q9BY41); experiment: HDAC8 electrophoretic mobility shift assay; format: biochemical; conditions: Table 7, read-out: HDAC IC50, HDAC 8
HDAC4 = HDAC4 (Homo sapiens (Human), UniProt P56524); experiment: HDAC4 electrophoretic mobility shift assay; format: biochemical; conditions: Table 7, read-out: HDAC IC50, HDAC 4
HDAC1 = HDAC1 (Homo sapiens (Human), UniProt Q13547); experiment: HDAC1 electrophoretic mobility shift assay; format: biochemical; conditions: Table 7, read-out: HDAC IC50, HDAC 1
HDAC10 = HDAC10 (Homo sapiens (Human), UniProt Q969S8); experiment: HDAC10 electrophoretic mobility shift assay; format: biochemical; conditions: Table 7, read-out: HDAC IC50, HDAC 10
HDAC3 = HDAC3 (Homo sapiens (Human), UniProt O15379); experiment: HDAC3 electrophoretic mobility shift assay; format: biochemical; conditions: Table 7, read-out: HDAC IC50, HDAC 3
HDAC6 = HDAC6 (Homo sapiens (Human), UniProt Q9UBN7); experiment: HDAC6 electrophoretic mobility shift assay; format: biochemical; conditions: mobility shift assay, Table 7; read-out: HDAC IC50, HDAC 6
Sequence of HDAC6 (Q9UBN7 whole entry, species assumed): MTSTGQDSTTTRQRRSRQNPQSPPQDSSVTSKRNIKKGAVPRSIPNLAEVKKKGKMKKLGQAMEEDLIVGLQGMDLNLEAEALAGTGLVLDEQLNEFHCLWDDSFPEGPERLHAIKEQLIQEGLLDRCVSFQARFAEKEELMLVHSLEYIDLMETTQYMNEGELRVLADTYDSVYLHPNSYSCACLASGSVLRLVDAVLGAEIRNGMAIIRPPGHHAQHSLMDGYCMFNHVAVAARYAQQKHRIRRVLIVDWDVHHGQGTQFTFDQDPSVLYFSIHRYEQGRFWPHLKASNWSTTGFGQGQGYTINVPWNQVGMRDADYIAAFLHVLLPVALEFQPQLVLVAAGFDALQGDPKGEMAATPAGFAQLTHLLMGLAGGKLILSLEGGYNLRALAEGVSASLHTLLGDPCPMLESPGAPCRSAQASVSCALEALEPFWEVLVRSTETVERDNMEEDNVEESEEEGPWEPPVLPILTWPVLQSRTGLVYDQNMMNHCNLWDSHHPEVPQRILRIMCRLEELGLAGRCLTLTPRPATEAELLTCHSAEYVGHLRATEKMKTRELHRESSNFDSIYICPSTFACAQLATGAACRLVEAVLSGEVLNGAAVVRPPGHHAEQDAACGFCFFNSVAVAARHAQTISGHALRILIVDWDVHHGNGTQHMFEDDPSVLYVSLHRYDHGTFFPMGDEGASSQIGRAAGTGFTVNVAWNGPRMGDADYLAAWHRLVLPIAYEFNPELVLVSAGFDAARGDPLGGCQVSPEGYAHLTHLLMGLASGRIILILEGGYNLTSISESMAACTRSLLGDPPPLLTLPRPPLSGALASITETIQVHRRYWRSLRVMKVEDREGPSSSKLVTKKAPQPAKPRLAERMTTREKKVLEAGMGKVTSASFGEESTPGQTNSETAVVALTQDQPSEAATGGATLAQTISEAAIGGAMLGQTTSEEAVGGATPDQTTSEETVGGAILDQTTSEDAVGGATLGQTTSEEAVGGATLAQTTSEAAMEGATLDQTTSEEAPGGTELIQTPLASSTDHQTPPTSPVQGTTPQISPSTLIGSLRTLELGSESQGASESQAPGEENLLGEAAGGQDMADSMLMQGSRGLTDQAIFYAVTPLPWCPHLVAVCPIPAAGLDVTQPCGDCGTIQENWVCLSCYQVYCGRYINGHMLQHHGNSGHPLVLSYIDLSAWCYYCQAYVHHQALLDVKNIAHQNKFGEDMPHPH

HDAC2 = HDAC2 (Homo sapiens (Human), UniProt Q92769); experiment: HDAC2 electrophoretic mobility shift assay; format: biochemical; conditions: Table 7, read-out: HDAC IC50, HDAC 2
[8] = IP 5 mg/kg, male Balb/c nude mice
[9] = mouse, in vivo, IP 5 mg/kg, male Balb/c nude mice
[10] = mouse, in vivo, IV 1 mg/kg, male Balb/c nude mice

SMILES: CC1(C)c2cccc(C(=O)NO)c2CN1c1cnc(C(F)(F)F)nc1 [Compound 22-7, N-hydroxy-1,1-dimethyl-2-(2-(trifluoromethyl)pyrimidin-5-yl)isoindoline-4-carboxamide]
LipE (HDAC11): ++ (indicates 5.5<LipE≤6.5) | solubility [1]: > 55 µM | IC50 (full-length human HDAC11 [2]; Table 6, read-out: HDAC11 IC50): < 500 nM | IC50 ([3]; read-out: HDAC11 BRET IC50, BRET cell assay, Table 6): < 500 nM | microsomal CLint [4]: < 50 µL/min/mg | IC50 (full-length human HDAC11 [5]): < 500 nM

Bioavailability [6, 8]: 81 % F | t1/2 [6, 8]: 10.2 h | t1/2 ([6]; IV 1 mg/kg, male Balb/c nude mice): 9.4 h | AUC(0-t) [6, 9]: 3.8 µM·h | Cmax [6, 9]: 4.2 µM | half-life [6, 9]: 10.2 h | AUC(0-t) [6, 10]: 1 µM·h | C0 [6, 10]: 3.5 µM | clearance [6, 10]: 42 mL/min/kg | half-life [6, 10]: 9.4 h | Vd ([6]; mouse, in vivo, IV 1 mg/kg, male Balb/c nude mice, read-out: Vss): 18 L/kg | time free drug levels maintained over the cellular IC50 ([6]; single 5 mg/kg i.p. dose, mice): up to 4 h | solubility [1]: 30 to 55 µM (≈ 10.6 to 19.4 µg/mL) | IC50 (HDAC5): > 1000 nM | IC50 (HDAC7): > 1000 nM | microsomal CLint [4]: < 50 µL/min/mg | IC50 (HDAC9): > 1000 nM
SMILES: CC1(C)c2cccc(C(=O)NO)c2CN1c1cnc(C(F)(F)F)cn1 [Compound 22-8, N-Hydroxy-1,1-dimethyl-2-(5-(trifluoromethyl)pyrazin-2-yl)isoindoline-4-carboxamide]

LipE (HDAC11): + (indicates LipE≤5.5) | IC50 (HDAC8): > 1000 nM | IC50 (HDAC4): > 1000 nM | IC50 (HDAC1): > 1000 nM | solubility [1]: ≤ 30 µM | HDAC11 potency, in words (full-length human HDAC11 [2]; comparison with parent or lead compound): loss of all HDAC11 activity | IC50 (full-length human HDAC11 [2]; Table 6, read-out: HDAC11 IC50): > 1000 nM | IC50 (full-length human HDAC11 [2]; Table 7, read-out: HDAC IC50, HDAC 11): > 1000 nM | IC50 [3]: > 1000 nM | IC50 (HDAC5): > 1000 nM | IC50 (HDAC7): > 1000 nM | IC50 (HDAC10): > 1000 nM | microsomal CLint [4]: < 50 µL/min/mg | IC50 (HDAC3): > 1000 nM | IC50 (HDAC9): > 1000 nM | IC50 (HDAC6): > 1000 nM | IC50 (HDAC2): > 1000 nM
SMILES: CC1(C)c2cccc(C(N)=O)c2CN1c1cnc(C(F)(F)F)cn1 [Compound 50-1, 1,1-Dimethyl-2-(5-(trifluoromethyl)pyrazin-2-yl)isoindoline-4-carboxamide]
activity against all HDACs, in words [7]: inactive against all HDACs
